{
  "source": "paper PMC2362650",
  "about": "“Phase I and pharmacokinetic study of the topoisomerase II catalytic inhibitor fostriecin” (British Journal of Cancer, 1999)",
  "experiment": "Plasma and urine pharmacokinetics (HPLC-UV) in patients after 60-min IV infusion",
  "format": "in vivo, human",
  "settings": "human; for Cmax / AUC / MRT / half-life: plasma, intravenous, day 1 course 1; for Cmax: observed value; for MRT: read-out: MRT",
  "excerpt": "Fostriecin (CI-920) is a topoisomerase (topo) II catalytic activity inhibitor (Boritzki et al, 1988) (Figure 1). This novel class of topo II-targeting drugs is considered of potential value for treatment of patients with tumours resistant to classic topo II poisons, including anthracyclines and podophyllotoxins (Cummings and Smyth, 1993). The nuclear enzyme topo II is essential for the regulation of DNA conformation (reviewed in Osheroff et al, 1991). Central in its action is the formation of a complex with DNA. Stabilization of this complex by topo II poisons induces DNA damage and cell death (Froelich-Ammon and Osheroff, 1995). Decreased complex formation due to decreased topo II levels is considered to be an important mechanism of tumour-resistance to topo II poisons (Beck and Danks, 1991). The topo II catalytic inhibitor fostriecin is expected to have increased activity against tumour cells with low topo II levels and this was confirmed in in vitro studies (De Jong et al, 1991). […] Because of increased toxi- city of fostriecin in dogs compared to mice, a dose below one-third of the one-tenth mouse equivalent LD10, 2 mg m-2 day-1, was chosen as starting dose in humans (Clinical Brochure Fostriecin, 1991). […] We also performed an analysis of the human pharmacokinetics of fostriecin and ex vivo experiments to investigate if the plasma drug concentrations achieved were sufficient to inhibit a tenipo- side-resistant tumour cell line. The maximum tolerated dose (MTD) of fostriecin could not be established because drug supply was stopped prematurely. However, results of this study may provide a basis for continued clinical development of this agent. PATIENTS AND METHODS Patient selection, drug administration and evaluation Patient eligibility criteria were: histologically confirmed diagnosis of a solid tumour, no longer amenable to established forms of treatment; age 18-75 years; Eastern Cooperative Oncology Group (ECOG) performance status 2; life expectancy 12 weeks; no Phase I and pharmacokinetic study of the topoisomerase II catalytic inhibitor fostriecin RS de Jong1, NH Mulder1, DRA Uges2, DTh Sleijfer1, FJP Hoppener4, HJM Groen3, PHB Willemse1, WTA van der Graaf1 and EGE de Vries1 Departments of 1Medical Oncology, 2Pharmacy and Toxicology, and 3Pulmonary Diseases, University Hospital Groningen, The Netherlands; 4EORTC New Drug Development Office, Amsterdam, The Netherlands Summary We conducted a phase I and pharmacokinetic study of the topoisomerase II catalytic inhibitor fostriecin. Fostriecin was administered intravenously over 60 min on days 1-5 at 4-week intervals. Dose was escalated from 2 mg m-2 day-1 to 20 mg m-2 day-1 in 20 patients. Drug pharmacokinetics was analysed with high performance liquid chromatography with UV-detection. Plasma collected during drug administration was tested in vitro for growth inhibition of a teniposide-resistant small-cell lung cancer (SCLC) cell line. The predominant toxicities were elevated liver transaminases (maximum common toxicity criteria (CTC) grade 4) and serum creatinine (maximum CTC grade 2). […] Duration of elevated alanine-amino transferase (ALT) was dose-limiting in one patient at 20 mg m-2. Other frequent toxicities were grade 1-2 nausea/vomiting, fever and mild fatigue. […] A metabolite, most probably dephosphorylated fostriecin, was detected in plasma and urine. […] However, further escalation seems possible and is warranted to achieve potentially effective drug levels. Fostriecin has a short plasma half-life and longer duration of infusion should be considered. […]",
  "key": {"[1]": {"settings": "2 mg, patient no. 1, 2 mg m-2, one-compartment model"}, "[2]": {"settings": "2 mg, patient no. 3, 2 mg m-2, one-compartment model"}, "[3]": {"settings": "2 mg, patient no. 4, 2 mg m-2, one-compartment model"}, "[4]": {"settings": "4 mg, patient no. 5, 4 mg m-2, one-compartment model"}, "[5]": {"settings": "4 mg, patient no. 6, 4 mg m-2, one-compartment model"}, "[6]": {"settings": "4 mg, patient no. 7, 4 mg m-2, two-compartment model"}, "[7]": {"settings": "6.6 mg, patient no. 11, 6.6 mg m-2, two-compartment model"}, "[8]": {"settings": "6.6 mg, patient no. 12, 6.6 mg m-2, two-compartment model"}, "[9]": {"settings": "10 mg, patient no. 13, 10 mg m-2, two-compartment model"}, "[10]": {"settings": "10 mg, patient no. 15, 10 mg m-2, two-compartment model"}, "[11]": {"settings": "12.2 mg, patient no. 16, 12.2 mg m-2, two-compartment model"}},
  "note": "Read-outs that look alike come from different tables or passages of the source.",
  "data": [
    {"compound": "C[C@@](O)(/C=C/[C@H]1CC=CC(=O)O1)[C@@H](C[C@@H](O)\\C=C/C=C\\C=C\\CO)OP(=O)(O)O", "note": "[fostriecin]", "values": [
      {"measurement": "number of patients with fostriecin detectable in plasma more than 7 h after infusion", "setting": "in vivo", "result": "one"},
      {"measurement": "Cmax", "setting": "2 mg, patient no. 1, 2 mg m-2", "result": 495, "unit": "ng/mL"},
      {"measurement": "AUC", "setting": "[1]", "result": 739, "unit": "ng·h/mL"},
      {"measurement": "MRT", "setting": "[1]", "result": 51.6, "unit": "min"},
      {"measurement": "half-life", "setting": "2 mg, patient no. 1, 2 mg m-2, one-compartment model, read-out: t1/2 (converted)", "result": 36, "unit": "min"},
      {"measurement": "Cmax", "setting": "2 mg, patient no. 3, 2 mg m-2", "result": 597, "unit": "ng/mL"},
      {"measurement": "AUC", "setting": "[2]", "result": 810, "unit": "ng·h/mL"},
      {"measurement": "MRT", "setting": "[2]", "result": 46.2, "unit": "min"},
      {"measurement": "half-life", "setting": "2 mg, patient no. 3, 2 mg m-2, one-compartment model, read-out: t1/2 (converted)", "result": 32.4, "unit": "min"},
      {"measurement": "Cmax", "setting": "2 mg, patient no. 4, 2 mg m-2", "result": 371, "unit": "ng/mL"},
      {"measurement": "AUC", "setting": "[3]", "result": 468, "unit": "ng·h/mL"},
      {"measurement": "MRT", "setting": "[3]", "result": 30.6, "unit": "min"},
      {"measurement": "half-life", "setting": "2 mg, patient no. 4, 2 mg m-2, one-compartment model, read-out: t1/2 (converted)", "result": 21, "unit": "min"},
      {"measurement": "Cmax", "setting": "4 mg, patient no. 5, 4 mg m-2", "result": 1160, "unit": "ng/mL"},
      {"measurement": "AUC", "setting": "[4]", "result": 1360, "unit": "ng·h/mL"},
      {"measurement": "MRT", "setting": "[4]", "result": 43.2, "unit": "min"},
      {"measurement": "half-life", "setting": "4 mg, patient no. 5, 4 mg m-2, one-compartment model, read-out: t1/2 (converted)", "result": 30, "unit": "min"},
      {"measurement": "Cmax", "setting": "4 mg, patient no. 6, 4 mg m-2", "result": 956, "unit": "ng/mL"},
      {"measurement": "AUC", "setting": "[5]", "result": 1170, "unit": "ng·h/mL"},
      {"measurement": "MRT", "setting": "[5]", "result": 40.2, "unit": "min"},
      {"measurement": "half-life", "setting": "4 mg, patient no. 6, 4 mg m-2, one-compartment model, read-out: t1/2 (converted)", "result": 27.6, "unit": "min"},
      {"measurement": "Cmax", "setting": "4 mg, patient no. 7, 4 mg m-2", "result": 940, "unit": "ng/mL"},
      {"measurement": "AUC", "setting": "[6]", "result": 1490, "unit": "ng·h/mL"},
      {"measurement": "MRT", "setting": "[6]", "result": 116, "unit": "min"},
      {"measurement": "half-life", "setting": "4 mg, patient no. 7, 4 mg m-2, two-compartment model, read-out: t1/2 (initial) (converted)", "result": 15.6, "unit": "min"},
      {"measurement": "half-life", "setting": "4 mg, patient no. 7, 4 mg m-2, two-compartment model, read-out: t1/2 (terminal) (converted)", "result": 122, "unit": "min"},
      {"measurement": "Cmax", "setting": "6.6 mg, patient no. 11, 6.6 mg m-2", "result": 1400, "unit": "ng/mL"},
      {"measurement": "AUC", "setting": "[7]", "result": 1650, "unit": "ng·h/mL"},
      {"measurement": "MRT", "setting": "[7]", "result": 26.4, "unit": "min"},
      {"measurement": "half-life", "setting": "6.6 mg, patient no. 11, 6.6 mg m-2, two-compartment model, read-out: t1/2 (initial) (converted)", "result": 5.4, "unit": "min"},
      {"measurement": "half-life", "setting": "6.6 mg, patient no. 11, 6.6 mg m-2, two-compartment model, read-out: t1/2 (terminal) (converted)", "result": 28.2, "unit": "min"},
      {"measurement": "Cmax", "setting": "6.6 mg, patient no. 12, 6.6 mg m-2", "result": 1860, "unit": "ng/mL"},
      {"measurement": "AUC", "setting": "[8]", "result": 2450, "unit": "ng·h/mL"},
      {"measurement": "MRT", "setting": "[8]", "result": 37.8, "unit": "min"},
      {"measurement": "half-life", "setting": "6.6 mg, patient no. 12, 6.6 mg m-2, two-compartment model, read-out: t1/2 (initial) (converted)", "result": 15, "unit": "min"},
      {"measurement": "half-life", "setting": "6.6 mg, patient no. 12, 6.6 mg m-2, two-compartment model, read-out: t1/2 (terminal) (converted)", "result": 73.2, "unit": "min"},
      {"measurement": "Cmax", "setting": "10 mg, patient no. 13, 10 mg m-2", "result": 2240, "unit": "ng/mL"},
      {"measurement": "AUC", "setting": "[9]", "result": 3350, "unit": "ng·h/mL"},
      {"measurement": "MRT", "setting": "[9]", "result": 55.2, "unit": "min"},
      {"measurement": "half-life", "setting": "10 mg, patient no. 13, 10 mg m-2, two-compartment model, read-out: t1/2 (initial) (converted)", "result": 100, "unit": "min"},
      {"measurement": "half-life", "setting": "10 mg, patient no. 13, 10 mg m-2, two-compartment model, read-out: t1/2 (terminal) (converted)", "result": 55.8, "unit": "min"},
      {"measurement": "Cmax", "setting": "10 mg, patient no. 15, 10 mg m-2", "result": 2450, "unit": "ng/mL"},
      {"measurement": "AUC", "setting": "[10]", "result": 3770, "unit": "ng·h/mL"},
      {"measurement": "MRT", "setting": "[10]", "result": 60.6, "unit": "min"},
      {"measurement": "half-life", "setting": "10 mg, patient no. 15, 10 mg m-2, two-compartment model, read-out: t1/2 (initial) (converted)", "result": 18, "unit": "min"},
      {"measurement": "half-life", "setting": "10 mg, patient no. 15, 10 mg m-2, two-compartment model, read-out: t1/2 (terminal) (converted)", "result": 83.4, "unit": "min"},
      {"measurement": "Cmax", "setting": "12.2 mg, patient no. 16, 12.2 mg m-2", "result": 3200, "unit": "ng/mL"},
      {"measurement": "AUC", "setting": "[11]", "result": 4230, "unit": "ng·h/mL"},
      {"measurement": "MRT", "setting": "[11]", "result": 56.4, "unit": "min"},
      {"measurement": "half-life", "setting": "12.2 mg, patient no. 16, 12.2 mg m-2, two-compartment model, read-out: t1/2 (initial) (converted)", "result": 13.2, "unit": "min"}
    ]}
  ]
}
